What all share (format): cell-based
The target in data set [1] is T1, ATP-dependent translocase ABCB1 (Homo sapiens, UniProt P08183). Put plainly: Reversal of P-gp mediated multidrug resistance in human MCF7/ADM cells assessed as potentiation of doxorubicin-induced cell growth inhibition at 10 uM measured after 48 hrs by MTT assay (reference value: 5%).
Data set [2] has as its target T1, ATP-dependent translocase ABCB1. The data set is described as follows: Reversal of P-gp mediated multidrug resistance in human HepG2/Dox cells assessed as potentiation of doxorubicin-induced cell growth inhibition at 10 uM measured after 48 hrs by MTT assay (reference value: 24%).
A short description of data set [3]: Cytotoxicity against human MCF7/ADM cells assessed as reduction in cell viability at 10 uM measured after 48 hrs by MTT assay.
A short description of data set [4]: Cytotoxicity against human HepG2/DOX cells assessed as reduction in cell viability at 10 uM measured after 48 hrs by MTT assay.
The target of data set [5] is T1, ATP-dependent translocase ABCB1. The data set is described as follows: Reversal of P-gp mediated multidrug resistance in human MCF7/ADM cells assessed as potentiation of doxorubicin-induced cell growth inhibition at 10 uM measured after 48 hrs by MTT assay.
The target is the same in data set [6]. The data set is described as follows: Reversal of P-gp mediated multidrug resistance in human HepG2/Dox cells assessed as potentiation of doxorubicin-induced cell growth inhibition at 10 uM measured after 48 hrs by MTT assay.

Structures are written as SMILES.

T1 sequence (P08183 whole entry): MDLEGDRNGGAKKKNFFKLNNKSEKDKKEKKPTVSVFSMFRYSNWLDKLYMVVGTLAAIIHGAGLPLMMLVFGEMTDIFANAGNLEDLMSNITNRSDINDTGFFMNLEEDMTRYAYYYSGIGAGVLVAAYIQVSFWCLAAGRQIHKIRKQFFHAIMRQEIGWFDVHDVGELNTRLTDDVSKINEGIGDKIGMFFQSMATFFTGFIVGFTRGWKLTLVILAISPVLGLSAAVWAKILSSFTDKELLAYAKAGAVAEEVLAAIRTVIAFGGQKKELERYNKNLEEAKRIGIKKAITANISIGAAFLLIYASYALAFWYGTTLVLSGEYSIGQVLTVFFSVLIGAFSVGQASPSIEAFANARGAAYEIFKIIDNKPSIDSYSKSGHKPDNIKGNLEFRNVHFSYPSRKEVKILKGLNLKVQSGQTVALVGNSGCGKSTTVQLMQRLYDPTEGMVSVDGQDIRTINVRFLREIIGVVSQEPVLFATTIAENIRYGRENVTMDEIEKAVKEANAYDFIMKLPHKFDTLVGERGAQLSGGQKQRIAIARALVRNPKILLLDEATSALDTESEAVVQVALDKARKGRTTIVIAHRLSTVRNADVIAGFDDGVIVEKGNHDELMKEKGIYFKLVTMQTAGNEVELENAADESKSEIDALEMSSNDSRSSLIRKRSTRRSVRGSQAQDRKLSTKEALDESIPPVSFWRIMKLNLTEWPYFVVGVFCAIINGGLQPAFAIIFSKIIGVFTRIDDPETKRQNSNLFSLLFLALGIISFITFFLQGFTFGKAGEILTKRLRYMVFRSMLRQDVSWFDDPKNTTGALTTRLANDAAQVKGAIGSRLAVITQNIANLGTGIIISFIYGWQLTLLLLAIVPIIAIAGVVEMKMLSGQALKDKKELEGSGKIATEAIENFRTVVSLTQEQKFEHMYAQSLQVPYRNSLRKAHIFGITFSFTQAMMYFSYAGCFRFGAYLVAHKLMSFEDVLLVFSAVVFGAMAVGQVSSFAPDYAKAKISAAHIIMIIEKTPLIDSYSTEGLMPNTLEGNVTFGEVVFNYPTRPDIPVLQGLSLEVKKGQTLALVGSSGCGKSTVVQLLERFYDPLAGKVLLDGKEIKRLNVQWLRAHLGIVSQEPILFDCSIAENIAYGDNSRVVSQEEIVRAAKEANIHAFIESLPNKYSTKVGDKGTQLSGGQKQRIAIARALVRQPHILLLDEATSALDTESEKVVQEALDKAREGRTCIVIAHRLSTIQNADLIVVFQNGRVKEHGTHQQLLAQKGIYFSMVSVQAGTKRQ

As to `O=C1C=C2C=C[C@@H]3C[C@@]2(O1)[C@H]1CCCCN31` [SECURININE], the inhibition at 10 µM was determined as 31% in data set [1] and 36% in data set [2].
For the compound `COc1ccc(CCN(C)CCCC(C#N)(c2ccc(OC)c(OC)c2)C(C)C)cc1OC` (centres undefined) [VERAPAMIL], the figures for the inhibition at 10 µM in data set [1] and in data set [2] were 70% and 84%, respectively.
On to `CCCN(C(=O)CCCCCC(=O)N(CCC)[C@H]1CC2=CC(=O)O[C@]23C[C@H]1N1CCCC[C@H]13)[C@H]1CC2=CC(=O)O[C@]23C[C@H]1N1CCCC[C@H]13`, for which the Activity entry in data set [3] and in data set [4] was “Toxic” throughout.
As for `CCCN(C(=O)CCCCCC(=O)N(CCC)[C@H]1CC2=CC(=O)O[C@@]23C[C@@H]1N1CCCC[C@@H]13)[C@H]1CC2=CC(=O)O[C@@]23C[C@@H]1N1CCCC[C@@H]13`, the inhibition at 10 µM in data set [1] stood at 84%; in data set [2], 78%. The Activity entry in data set [3] and in data set [4] was “Toxic” throughout.
On to `CCCN(C(=O)CCCCCCCC(=O)N(CCC)[C@H]1CC2=CC(=O)O[C@]23C[C@H]1N1CCCC[C@H]13)[C@H]1CC2=CC(=O)O[C@]23C[C@H]1N1CCCC[C@H]13`, for which the Activity entry in data set [3] and in data set [4] was “Toxic” throughout. Further, the “inhibition (INH)” value in data set [5] and in data set [6] was “Active” in each case.

Source of the values: ChEMBL document CHEMBL4311985, “Novel virosecurinine bivalent mimetics as potent reversal agents against P-glycoprotein-mediated multidrug resistance” (Eur J Med Chem, 2019).
